Results from paper PMC8341105, “Mapping the energy landscape of protein–ligand binding via linear free energy relationships determined by protein NMR relaxation dispersion” (RSC Chemical Biology, 2020).
“And” between values parts separate entries of the source, which are not always exact repeats. Identical values can stand only once. Like-named read-outs stand apart in the source and are kept apart here.

Assays:
galectin-3C [1] = target: T1, galectin-3C (Homo sapiens, UniProt P17931); test: 15N CPMG relaxation dispersion of ligand binding kinetics; settings: for kex, Group 1: Group 1 residues fitted jointly: slow exchange corresponding to ligand binding/unbinding; for kex, Group 2: Group 2 residues fitted jointly: fast conformational exchange independent of ligand binding/unbinding; for Population (relative population of the bound state, pB), Group 1: global fit of Group 1 residues, near-saturated NMR sample
T1 construct: the carbohydrate-recognition domain of galectin-3 (galectin-3C); made in house
T1 sequence (P17931 118-248 limits assumed): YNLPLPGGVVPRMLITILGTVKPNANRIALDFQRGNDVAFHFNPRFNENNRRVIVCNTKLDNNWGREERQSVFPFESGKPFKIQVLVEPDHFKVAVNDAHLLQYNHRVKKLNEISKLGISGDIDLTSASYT
Text: We measured equilibrium exchange between free and ligand-bound states of galectin-3C using ^15N CPMG relaxation dispersion experiments[15] acquired on near-saturated samples at two static magnetic field strengths. […] We analyzed the relaxation dispersion profiles using a two-state exchange model (eqn (1)–(4)).[18,27,28] […] All residues within a given group were then fitted jointly to yield global exchange parameters, kex and p, and residue-specific ΔδCPMG (ESI, ^† Table S1 lists all residues included in the fit for the two groups of each complex together with the fitted parameters). In the following, we focus on the exchange related to ligand binding and release.
In the present case, we determined all exchange parameters directly from the relaxation dispersion data. […] This requires that the ligand and protein concentrations are measured accurately, Kd is known from previous experiments, and the NMR spectra of the free and bound states are available; these requirements are easily met in most cases. While the amplitude and shape of the relaxation dispersion profile depends intricately on the populations, rates, and chemical shift difference, it may be expected that off-rates can be determined for systems with dissociation constants in the range of 0.1 μM to 1 mM.
^15N-Labeled galectin-3C samples were prepared by extensive dialysis (Slide-A-Lyzer MINI Dialysis, ThermoScientific) against 5 mM 4-(2-hydroxyethyl)-1-piperazinethanesulfonic acid (HEPES) buffer to remove all lactose, followed by centrifugation at 14 000 rpm for 5 minutes to remove any aggregates. The protein concentration was determined by UV absorption at 280 nm, as described before.[33] […] Ligand–galectin-3C complexes were prepared by titrating freshly sonicated stock solutions of the ligands into apo galectin-3C samples while monitoring the galectin-3C chemical shifts in the ^15N heteronuclear single-quantum correlation (HSQC) spectrum. At the end of each titration, the total amount of added DMSO in the L2 and L3 samples was 2% (v/v).
Relaxation-compensated CPMG relaxation dispersion experiments[15] were performed using the constant-time approach[34] covering 18–24 different refocusing frequencies, νcp. An equilibration period of 5 ms was added prior to the CPMG refocusing pulse train to ensure that the initial magnetizations reflect the relative populations of the exchanging states.[35] […] Spectra were processed using NMRPipe.[37] The processing protocol involved a solvent filter, cosine-squared apodization functions, zero filling to twice the number of increments in all dimensions, and a polynomial baseline correction in the ^1H dimension. Relaxation rates were extracted using PINT, which employs line-shape fitting to resolve overlapped peaks.[38] Peak intensities were evaluated using a weighted sum of Lorentzian and Gaussian line shapes. Standard deviations were determined by propagating the errors of intensities estimated from the baseplane noise. Error estimates are reported as one standard deviation.
The relaxation dispersion data were analyzed using CPMGfit v2.22, an in-house Matlab program.

galectin-3C [2] = target: T1, galectin-3C; parameters: method as in PMID 20873837; settings: ITC under sample conditions near-identical to those used for CPMG dispersion experiments; determined previously; cited from earlier work
[3] = k on is determined from Kd and koff (kon = koff/Kd)
[4] = koff = kex(1 − pB), 15N CPMG relaxation dispersion, 301 K, near-saturated samples

| Compound | kex, Group 1 (galectin-3C [1]) | kex, Group 2 (galectin-3C [1]) | Population (relative population of the bound state, pB), Group 1 (galectin-3C [1]) | kon (galectin-3C [1]; [3]) | koff (galectin-3C [1]; [4]) | kon (galectin-3C [1]; k on is determined from Kd and koff (kon = koff/Kd), read-out: k on) | koff (galectin-3C [1]; koff = kex(1 − pB), 15N CPMG relaxation dispersion, 301 K, near-saturated samples, read-out: k off) | Kd (galectin-3C [2]) | koff (galectin-3C [1]) | kon (galectin-3C [1]) |
| --- | --- | --- | --- | --- | --- | --- | --- | --- | --- | --- |
| OC[C@H]1O[C@@H](S[C@@H]2O[C@H](CO)[C@@H](O)[C@H](O)[C@H]2O)[C@H](O)[C@@H](n2cc(-c3cccc(F)c3)nn2)[C@H]1O [mL4, meta-fluoro-phenyltriazolyl-galactosylthioglucoside] | 808 ± 55 s⁻¹ | 4804 ± 448 s⁻¹ |  |  |  |  |  |  | 8 ± 1 s⁻¹ | 3.9e+06 ± 700000 M⁻¹ s⁻¹ |
| OC[C@H]1O[C@@H](S[C@@H]2O[C@H](CO)[C@@H](O)[C@H](O)[C@H]2O)[C@H](O)[C@@H](n2cc(-c3ccccc3F)nn2)[C@H]1O [oL4, ortho-fluoro-phenyltriazolyl-galactosylthioglucoside] | 1210 ± 209 s⁻¹ | 15800 ± 386 s⁻¹ | 0.97 ± 0.01 |  |  | 4.4e+06 ± 1.1e+06 M⁻¹ s⁻¹ | 32 ± 5 s⁻¹ |  |  |  |
| OC[C@H]1O[C@@H](S[C@@H]2O[C@H](CO)[C@@H](O)[C@H](O)[C@H]2O)[C@H](O)[C@@H](n2cc(-c3ccc(F)cc3)nn2)[C@H]1O [pL4, para-fluoro-phenyltriazolyl-galactosylthioglucoside] | 859 ± 115 s⁻¹ | 8386 ± 691 s⁻¹ | 0.99 ± 0.01 |  |  |  |  | 2.5 ± 0.3 µM | 13 ± 1 s⁻¹ | 5.2e+06 ± 800000 M⁻¹ s⁻¹ |

Continued, in another order:

| kex, Group 1 (galectin-3C [1]) | kex, Group 2 (galectin-3C [1]) | Population (relative population of the bound state, pB), Group 1 (galectin-3C [1]) | kon (galectin-3C [1]; [3]) | koff (galectin-3C [1]; [4]) | kon (galectin-3C [1]; k on is determined from Kd and koff (kon = koff/Kd), read-out: k on) | koff (galectin-3C [1]; koff = kex(1 − pB), 15N CPMG relaxation dispersion, 301 K, near-saturated samples, read-out: k off) | Compound | Kd (galectin-3C [2]) | koff (galectin-3C [1]) | kon (galectin-3C [1]) |
| --- | --- | --- | --- | --- | --- | --- | --- | --- | --- | --- |
| 123 ± 20 s⁻¹ | 4110 ± 760 s⁻¹ | 0.93–0.94 and 0.94 ± 0.01 | 2.4 ± 0.4 10^6 M^−1 s^−1 | 8 ± 1 s⁻¹ |  |  | 3′-(4-methoxy-2,3,5,6-tetrafluorobenzamido)-N-acetyllactosamine [Ligand L3] | 3.3 ± 0.1 µM |  |  |
| 385 ± 126 s⁻¹ | 5370 ± 850 s⁻¹ | 0.93–0.94 and 0.93 ± 0.04 | 1.6 ± 0.5 10^6 M^−1 s^−1 | 28 ± 9 s⁻¹ |  |  | 3′-benzamido-N-acetyllactosamine [Ligand L2] | 18.2 ± 0.2 µM |  |  |
